The record followed here is ChEMBL document CHEMBL1201862, “PubChem BioAssay data set” (2004).

As usually defined, the GI50 is the concentration that inhibits growth by half.

Test systems include SNB-75; Hs-578T; ACHN; A498; OVCAR-3; K562; RXF 393; M14; SK-MEL-2; SF-539; HL-60; SN12C; SK-OV-3; SR; A549; MDA-N; HOP-92; SF-268; HCT-116; TK-10.
What all share (assay): DTP human tumour cell line panel, 48 h

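Exposure lasted 48 hours, with cells grown in 96-well plates and compounds tested at five concentrations. At the GI50, growth is halved.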 Activity calls are given as the source filed them. Cut-off read from the data, not from the text of the source: active = GI50 up to about 1.1 µM and inactive = higher.

`Cc1ccc(C(=O)NC2C(=O)NC(C(C)C)C(=O)N3CCCC3C(=O)N(C)CC(=O)N(C)C(C(C)C)C(=O)OC2C)c2c1Oc1c(c(C(=O)NC3C(=O)NC(C(C)C)C(=O)N4CCCC4C(=O)N(C)CC(=O)N(C)C(C(C)C)C(=O)OC3C)c3nc(-c4ccccc4)c(=O)oc3c1C)N2` (stereo not given): the 50% growth inhibitory concentration (GI50) in the experiment on SNB-75 was 0.00101 µM (active); in the experiment with Hs-578T, 0.00134 µM (active); with ACHN, 0.00515 µM (active); with A498 it was < 0.001 µM (active); in the experiment on OVCAR-3, 0.01 µM (active); in the experiment on K562, 0.00312 µM (active). In addition, the GI50 with RXF 393 is 0.00161 µM (active); in the experiment on M14 it was 0.0231 µM (active); in the experiment on SK-MEL-2, 0.00112 µM (active); with SF-539, < 0.001 µM (active); with HL-60, 0.00995 µM (active); with SN12C, < 0.001 µM (active). In addition, the GI50 in the experiment on SK-OV-3 is 0.00159 µM (active); with SR it was 0.01 µM (active); in the experiment on A549, < 0.001 µM (active); in the experiment on MDA-N it was 0.00348 µM (active); with HOP-92 it was 0.016 µM (active); in the experiment with SF-268 it was < 0.001 µM (active). For the same compound, the values for the GI50 with HCT-116 and with TK-10 were < 0.001 µM (active) and 0.0578 µM (active), respectively.
In the case of `COc1cc2oc(=O)cc(C)c2cc1[N+](=O)[O-]`, the GI50 with SNB-75 is 57.5 µM (inactive); in the experiment on Hs-578T, 28.2 µM (inactive); in the experiment on ACHN, 28.1 µM (inactive); in the experiment on A498, 28.4 µM (inactive); in the experiment with OVCAR-3 it was 25.4 µM (inactive); in the experiment with K562 it was 22.4 µM (inactive). Moreover, the GI50 with RXF 393 is 15.1 µM (inactive); with M14 it was 16.7 µM (inactive); in the experiment with SK-MEL-2, 12.4 µM (inactive); with SF-539 it was 23.8 µM (inactive); in the experiment on HL-60, 8.87 µM (inactive); in the experiment with SN12C it was 16.4 µM (inactive). The GI50 with SK-OV-3 is 84.1 µM (inactive); in the experiment on SR it was 13 µM (inactive); with A549 it was > 90.4 µM (inactive); in the experiment with MDA-N, 14.7 µM (inactive); with HOP-92, 17.1 µM (inactive); in the experiment with SF-268, 17.5 µM (inactive). Also, the GI50 was 15.3 µM (inactive) in the experiment on HCT-116 and 35.7 µM (inactive) with TK-10.
Take `Cc1cn(CCCCCCOC(=O)NC(CCCNC(=N)N)C(=O)O)c(=O)[nH]c1=O` (stereo not given): the GI50 in the experiment on SNB-75, in the experiment with Hs-578T, in the experiment on ACHN, in the experiment with A498, in the experiment with OVCAR-3 and in the experiment with K562 was > 100 µM (inactive) each time. The GI50 in the experiment on RXF 393, with M14, in the experiment with SK-MEL-2, with SF-539, with HL-60 and with SN12C was > 100 µM (inactive) throughout. The GI50 in the experiment on SK-OV-3, in the experiment with SR, with A549, in the experiment with MDA-N, in the experiment on HOP-92 and with SF-268 was > 100 µM (inactive) throughout. The GI50 with HCT-116 and in the experiment on TK-10 was > 100 µM (inactive) each time.
Take `CCCCCCCCCCCCNC(=O)CCC(NC(=O)c1ccc(N(C)Cc2cnc3nc(N)nc(N)c3n2)cc1)C(=O)NCCCCCCCCCCCC` (stereo not given): the GI50 with SNB-75 is 3.68 µM (inactive); with Hs-578T, 27.2 µM (inactive); in the experiment with ACHN, > 100 µM (inactive); with A498 it was 42.8 µM (inactive); in the experiment with OVCAR-3, 31.5 µM (inactive); in the experiment on K562 it was 18.5 µM (inactive). Besides, the GI50 was 18.4 µM (inactive) in the experiment with RXF 393; 56.5 µM (inactive) in the experiment on M14; 30 µM (inactive) in the experiment with SK-MEL-2; > 100 µM (inactive) in the experiment with SF-539; 31.8 µM (inactive) with HL-60; 91.8 µM (inactive) in the experiment with SN12C. For the same compound, the GI50 in the experiment on SR was 11.9 µM (inactive); with A549 it was > 100 µM (inactive); in the experiment with MDA-N, 41.7 µM (inactive); in the experiment on HOP-92 it was 9.44 µM (inactive); with SF-268 it was 78.3 µM (inactive); with HCT-116, 26.6 µM (inactive). For the same compound, the GI50 in the experiment on TK-10 was 38.3 µM (inactive).
As for `CN1CCN(CC(=O)Nc2cccc3ccccc23)CC1`, the GI50 with Hs-578T, with ACHN, in the experiment on A498, with OVCAR-3, in the experiment on K562 and in the experiment with RXF 393 was > 100 µM (inactive) in each case. Further, the GI50 in the experiment on M14, in the experiment with SK-MEL-2, with SF-539, with HL-60, with SN12C and in the experiment with SK-OV-3 was > 100 µM (inactive) each time. Further, the GI50 in the experiment on SR, in the experiment with A549, in the experiment on MDA-N, in the experiment on HOP-92, with SF-268 and with HCT-116 was > 100 µM (inactive) in each case. The GI50 in the experiment on TK-10 is > 100 µM (inactive).
On to `C#CCOC(=O)C(N)CSSCC(N)C(=O)O` (stereo not given), for which the GI50 in the experiment on SNB-75, with Hs-578T, in the experiment on ACHN, with A498, in the experiment on RXF 393 and with M14 was > 100 µM (inactive) throughout. The GI50 in the experiment on SK-MEL-2, with SF-539, with HL-60, with SN12C, in the experiment on SR and with A549 was > 100 µM (inactive) in each case. The GI50 in the experiment on MDA-N, with HOP-92, in the experiment on SF-268, in the experiment on HCT-116 and in the experiment with TK-10 was > 100 µM (inactive) in each case.
Consider `COc1ccccc1-c1c(C#N)c(N)[nH]c(=S)c1C#N`, for which the GI50 is 30.9 µM (inactive) in the experiment with Hs-578T; > 100 µM (inactive) with ACHN; 86.1 µM (inactive) in the experiment on A498; 56.1 µM (inactive) with OVCAR-3; 14.4 µM (inactive) with K562; 34.4 µM (inactive) in the experiment with RXF 393. Moreover, the GI50 was 78.2 µM (inactive) in the experiment on M14; 37 µM (inactive) in the experiment on SK-MEL-2; > 100 µM (inactive) in the experiment with SF-539; 34.7 µM (inactive) in the experiment on HL-60; 25.4 µM (inactive) in the experiment on SN12C; 46.5 µM (inactive) in the experiment on SR. Further, the GI50 is 83 µM (inactive) with A549; 25.9 µM (inactive) in the experiment with MDA-N; 62.5 µM (inactive) with HOP-92; 47.6 µM (inactive) with SF-268; 41.2 µM (inactive) in the experiment with HCT-116; > 100 µM (inactive) in the experiment with TK-10.
For `Cc1cc(S(=O)(=O)Nc2nc3ccccc3nc2-c2ccc(Cl)cc2)c(S)cc1Cl`, the GI50 is 27 µM (inactive) in the experiment with Hs-578T; 16.7 µM (inactive) in the experiment with ACHN; 16.3 µM (inactive) in the experiment with A498; 16.3 µM (inactive) in the experiment on OVCAR-3; 19.9 µM (inactive) in the experiment with K562; 23 µM (inactive) in the experiment on RXF 393. The GI50 is 19.3 µM (inactive) in the experiment on M14; 13.7 µM (inactive) with SK-MEL-2; 19.9 µM (inactive) with SF-539; 21.6 µM (inactive) in the experiment on HL-60; 25.6 µM (inactive) in the experiment on SN12C; 17.3 µM (inactive) with SK-OV-3. Further, the GI50 with SR is 17.3 µM (inactive); in the experiment on A549 it was 16.4 µM (inactive); in the experiment on MDA-N, 18 µM (inactive); with HOP-92, 20.4 µM (inactive); in the experiment on SF-268, 17.7 µM (inactive); with HCT-116, 19.4 µM (inactive). Besides, the GI50 with TK-10 was 28.6 µM (inactive).
Consider `COc1ccc(OC)c(C2CCc3c(cnc4nc(N)nc(N)c34)C2)c1` (stereo not given), for which the GI50 in the experiment on Hs-578T is 15.7 µM (inactive); in the experiment with ACHN, 3.91 µM (inactive); in the experiment on A498, 12.3 µM (inactive); in the experiment with OVCAR-3, 15.5 µM (inactive); in the experiment with K562 it was 0.573 µM (active); in the experiment on RXF 393 it was 15.8 µM (inactive). Further, the GI50 in the experiment on M14 was 1.3 µM (inactive); in the experiment with SK-MEL-2, 15.2 µM (inactive); in the experiment on SF-539 it was 22.8 µM (inactive); with HL-60 it was 10.4 µM (inactive); in the experiment on SN12C it was 8.83 µM (inactive); in the experiment with SK-OV-3, 16 µM (inactive). Moreover, the GI50 in the experiment with SR was 3.86 µM (inactive); in the experiment on A549, 1.24 µM (inactive); in the experiment with MDA-N it was 2.07 µM (inactive); with HOP-92, 13.2 µM (inactive); with SF-268 it was 4.21 µM (inactive); with HCT-116 it was 1.83 µM (inactive). For the same compound, in the experiment on TK-10, the GI50 is 10.9 µM (inactive).
On to `Nc1nc(Cl)cc(NCC2(O)CC(CO)C2)n1` (stereo not given), for which the GI50 with SNB-75, in the experiment on Hs-578T, in the experiment with ACHN, in the experiment with A498, with OVCAR-3 and in the experiment with K562 was > 100 µM (inactive) throughout. The GI50 with RXF 393, in the experiment with SK-MEL-2, in the experiment on SF-539, with HL-60, in the experiment with SN12C and with SK-OV-3 was > 100 µM (inactive) in each case. Besides, the GI50 in the experiment on SR, in the experiment with A549, with MDA-N, in the experiment with HOP-92, with SF-268 and in the experiment on HCT-116 was > 100 µM (inactive) throughout. Further, the GI50 in the experiment on TK-10 is > 100 µM (inactive).
